Like-named read-outs stand apart in the source and are kept apart here.
Tests used:
[1] = Physico-chemical characteristics of salt candidates: solubility in water, pH of aqueous suspension/solution, form post water maturation
Protocol: The physico-chemical characteristics of the salt candidates were determined.

[2] = Intrinsic dissolution of compressed tablet, pH 7.0, 37° C. (Sirius inForm); format: physicochemical; details: for Mass of salt (μg) dissolved after 2 hours, Average / Mass of salt (μg) dissolved after 2 hours, Test 1 / Mass of salt (μg) dissolved after 2 hours, Test 2: pH 7.0, 0.15 M NaCl, 37° C.; for mass dissolved: initial peak
Protocol: The dissolution assay (pH-dependent sample dissolution) was investigated using the Sirius inForm.
Dissolution of a compressed tablet of the compound was monitored in a pH 7.0 aqueous dissolution experiment (0.15 M NaCl) at 37° C. using UV-absorption spectroscopy in 2 hour experiments. A tablet with a diameter of 3 mm, requiring approximate weights of 10 mg was compressed under a weight of 100 kg load force. Only one face of the tablet was exposed to the dissolution medium, which contained a 0.01 M acetate/phosphate buffer system to minimise perturbation of the experimental pH from dissolution of the drug.
Stirring of the solution was continuous and at a constant rate of 100 rpm. The absorption data was converted to absolute sample weights using previously determined, pH-dependent, molar extinction coefficients. An appropriate wavelength range was chosen to ensure that spectroscopic data with an absorption value of <1.3 was analysed, avoiding erroneous dissolution results due to saturation of the UV light source.

[3] = Solubility of RPL554 and salts in pMDI propellant systems; format: physicochemical
Protocol: Quantitative assessment of the solubility of RPL554 and salt variants in the propellant systems of selected pMDI formulations (three replicates of each formulation) was performed. pMDIs were directly coupled to an adaptor fitted with a 0.20 μm filter unit connected, in series to a 21 G needle, which was inserted via a rubber septum, into a cooled multi-dose glass vial. A 19 G filter needle was inserted through the septum to aid evaporation of propellant from the vial. Prior to the filtration process the vial was cooled in a mixture of dry ice and acetone to ensure that the pressure within the vial was reduced in order to facilitate collection of the output from the pMDI. Ten consecutive actuations of the pMDI were fired through the filter and collected in the vial. Between actuations the canister was shaken for approximately 10 seconds. The pMDI unit was weighed before and after the filtering procedure. The filtrate was stored at room temperature and allowed to evaporate to dryness.
Samples were recovered by carefully rinsing the inside of the vials with 1 mL of recovery solution before transfer to HPLC vials for analysis. The estimated % of RPL554 solubilised within the canister was calculated from the starting mass of RPL554 within the canisters, which in turn was calculated using the theoretical molecular weight values of the RPL554 free base and salt variants shown in Table 13. The theoretical molecular weight estimates of the salts were provided by Verona.

[4] = Aerosol performance of DPI formulations (Cyclohaler, NGI); format: physicochemical; details: for †Measured Mass of 1% w/w Blend Delivered per capsule / ††RPL554 Emitted (μg) per capsule (B): Cyclohaler; for †Measured Mass of 1% w/w Blend Delivered per capsule: 5 capsules containing 20 mg powder blend, mass from weight change of capsule-loaded device; for ††RPL554 Emitted (μg) per capsule (B): NGI, mass determined from HPLC analysis of recovered samples; for ††RPL554 Emitted (μg) per capsule (B) / Calculated RPL554 Content (μg) per capsule (A): as RPL554 base; for Calculated RPL554 Content (μg) per capsule (A): calculated from delivered blend mass and measured blend content
Protocol: Capsules were hand filled with 20 mg of the 1% w/w RPL554 free base or salt variants: lactose blends, i.e. 200 μg salt per capsule, the fill weight of each capsule was recorded. Due to differences in the molecular weights of the RPL554 salt forms, the amount of RPL554 emitted per actuation varied as a function of molecular weight. The formulations were prepared with no adjustment for differences in molecular weight of the salts.
The powders were delivered via the Cyclohaler® DPI (PCH Pharmachemie, BV, The Netherlands). The Cyclohaler® DPI is a low resistance device and was operated at a flow rate of 90 L/min for 2.7 seconds. The cut off diameters for the NGI collection stages were calculated for the 90 L/min flow rate using the NGI User Guide (MSP Corporation, 2008).
The ED, FPD and FPF were determined from inertial impaction tests performed following the deposition of 5 capsules of each formulation into the NGI. For each capsule tested the combined weight of the Cyclohaler® and capsule was determined before and after operation to check that the dose had been delivered. The NGI was fitted with a pre-separator for these determinations. The central cup of the pre-separator was filled with 15 mL of diluent. Following deposition, the solution was recovered in a 20 mL volumetric flask and made up to volume with diluent. RPL554 was quantitatively recovered from the device, induction port and each of the NGI collection stages with 10 mL of diluent.
The volume of diluent used for each sample was selected to ensure RPL554 concentrations were above the limit of quantitation.

[5] = Primary particle size analysis by laser light diffraction (Mastersizer 2000); format: physicochemical; details: micronised, mean n=3
Protocol: A Mastersizer 2000 fitted with a Scirocco 2000 dry powder dispersion unit (Malvern Instruments Ltd, UK) was used to analyse the primary particle size of the micronised RPL554 and salt variants. The salts (50 mg) were automatically sampled via a vibrating feed control at a feeder rate of 60% and dispersed in compressed air at a pressure of 3 bar.

[6] = Solubility of RPL554 salts in saline solutions, water and aqueous buffer solutions at 25° C. (HPLC); format: physicochemical; details: for solubility at 24 h: thermodynamic from solid
Protocol: The behaviour of salts of RPL554 were examined under the following conditions: • Phosphate buffered to pH 3.5 in saline, 0.9% w/w at 25° C. • Acetate buffered to pH 4.5 in saline, 0.9% w/w at 25° C. • Citro-Phosphate buffered to pH 4.5 in saline, 0.9% w/w at 25° C. • Phosphate buffered to pH 6.5 in saline, 0.9% w/w at 25° C. • Saline, 0.7, 0.9 and 1.1% w/w at 25° C. • Deionised water at 25° C.
RPL554 salts and RPL554, ca 50 mg, were suspended in the various aqueous media, 1 ml, with agitation at the specified temperatures for 24 hours. The solids were isolated and dried in vacuo at 45° C. The retained filtrates were examined by HPLC.
Additional RPL554 methane sulfonate salt, ca 50 mg, was charged to the water mixtures at 25° C. and 37.5° C. in order to afford a suspension. In all other cases, suspensions were obtained.
The solubility of the RPL554 was determined by HPLC using a single point calibration and is expressed as RPL554 and not as the salt and are detailed in Table 6 and Table 7 for the various conditions utilised.

[7] = RPL554 content and content uniformity of 1% w/w lactose powder blends; format: physicochemical; details: for Measured Blend Content (% Theoretical): 1% w/w RPL554 variant: lactose powder blend, expressed as RPL554 base; for **Adjusted RPL554 Content per capsule: per 20 mg capsule of 1% w/w lactose blend, adjusted for measured blend content (% theoretical), as RPL554 base
Protocol: Batches (approximately 5 g) of 1% w/w RPL554 free base or salt variants: lactose blends were prepared. In brief, the RPL554 free base or salt plus a small quantity of lactose was passed through a 38 μm sieve. The sieved material plus the remaining lactose was mixed in a glass mortar prior to transfer to a stainless steel screw cap jar and further mixing (10 minutes at 46 rpm) conducted using a Turbula blender. The composition of the dry powder blend was 0.05 g API and 4.95 g lactose.
In order to determine the content uniformity of the blends, aliquots (approx. 20 mg) of powder were sampled from each blend, accurately weighed, and diluted to volume in 10 mL volumetric flasks with diluent. The flasks were sonicated for 3 minutes before samples were transferred to HPLC vials for analysis.

[8] = listed as p-toluenesulfonate salt
[9] = in HFA 134, BLQ = below limit of quantitation (0.06 μg/mL)
[10] = listed as benzenesulfonate salt

SMILES	Calculated RPL554 solubilised (%) ([3]; in HFA 134)	Calculated Solubilised RPL554 μg per 50 μL actuation ([3]; in HFA 134)	Solubility RPL554 [3, 9]	Estimated RPL554 solubilised (%) ([3]; in HFA 134 with Ethanol/Tween)	Estimated Solubilised RPL554 μg per 50 μL actuation ([3]; in HFA 134 with Ethanol/Tween)	Solubility RPL554 ([3]; in HFA 134 with Ethanol/Tween)	Calculated RPL554 solubilised (%) ([3]; in HFA 227)	Calculated Solubilised RPL554 μg per 50 μL actuation ([3]; in HFA 227)	Solubility RPL554 (μg/g) ([3]; in HFA 227)	†Measured Mass of 1% w/w Blend Delivered per capsule [4]	††RPL554 Emitted (μg) per capsule (B) [4]	Calculated RPL554 Content (μg) per capsule (A) [4]	D (0.1) (μm) [5]	D (0.5) (μm) [5]	D (0.9) (μm) [5]	Solubility as RPL554 (mg/ml) in 0.7 w/w % Saline ([6]; 24 hours)	Solubility as RPL554 (mg/ml) in 0.9 w/w % Saline ([6]; 24 hours)	Solubility as RPL554 (mg/ml) in 1.1 w/w % Saline ([6]; 24 hours)	Measured Blend Content (% Theoretical) [7]	**Adjusted RPL554 Content per capsule [7]	also measured
COc1cc2c(cc1OC)-c1c/c(=N\c3c(C)cc(C)cc3C)n(CCNC(N)=O)c(=O)n1CC2 [p-Toluenesulfonate, RPL554 p-toluenesulfonate]	0.08%	0.11 µg	1.56 µg/g	7.20%	10.58 µg	152.85 µg/g	BLQ	BLQ	BLQ	20.02 mg	86.84 µg	130.46 µg	0.47 μm	1.34 μm	4.53 μm	0.83 mg/mL	0.62 mg/mL	0.8 mg/mL	88.66 % Theoretical	130.33 µg	pH of aqueous suspension/solution ([1]; listed as p-Toluene sulfonic): 3.40; Mass of salt (μg) dissolved after 2 hours, Average [2, 8]: 61.6 µg; Mass of salt (μg) dissolved after 2 hours, Test 1 [2, 8]: 51.2 µg; Mass of salt (μg) dissolved after 2 hours, Test 2 [2, 8]: 71.9 µg; Solubility RPL554 (μg/g) ([3]; in HFA 134, BLQ = below limit of quantitation (0.06 μg/mL), listed as p-toluensulfonate): quantifiable levels of solubility; Solubility as RPL554 (mg/ml) in Water ([6]; deionised water, 24 hours): 1.01 mg/mL
COc1cc2c(cc1OC)-c1c/c(=N\c3c(C)cc(C)cc3C)n(CCNC(N)=O)c(=O)n1CC2 [Benzenesulfonate, RPL554 benzenesulfonate]				4.03%	6.05 µg	90.57 µg/g				20.04 mg	87.57 µg	134.49 µg	0.46 μm	1.23 μm	3.51 μm				89.34 % Theoretical	134.22 µg	pH of aqueous suspension/solution ([1]; listed as Benzene sulfonic): 3.43; solubility ([1]; water): 1470 µg/mL; Mass of salt (μg) dissolved after 2 hours, Average [2, 10]: 60.1 µg; Mass of salt (μg) dissolved after 2 hours, Test 1 [2, 10]: 50.0 µg; Mass of salt (μg) dissolved after 2 hours, Test 2 [2, 10]: 70.1 µg; solubility at 24 h ([6]; 0.7% w/w saline, saline or isotonic, 24 hours, read-out: Solubility as RPL554 (mg/ml) in 0.7 w/w % Saline): 2.27 mg/mL; solubility at 24 h ([6]; 0.9% w/w saline, saline or isotonic, 24 hours, read-out: Solubility as RPL554 (mg/ml) in 0.9 w/w % Saline): 2.74 mg/mL; solubility at 24 h ([6]; 1.1% w/w saline, saline or isotonic, 24 hours, read-out: Solubility as RPL554 (mg/ml) in 1.1 w/w % Saline): 2.94 mg/mL; solubility at 24 h ([6]; acetate buffer in 0.9% w/w saline, pH 4.5, aqueous buffer, in saline 0.9% w/w, read-out: Solubility as RPL554 (mg/ml) in buffer solution pH 4.5, Acetate): 1.39 mg/mL; solubility at 24 h ([6]; citro-phosphate buffer in 0.9% w/w saline, pH 4.5, aqueous buffer, in saline 0.9% w/w, read-out: Solubility as RPL554 (mg/ml) in buffer solution pH 4.5, Citro-phosphate): 1.57 mg/mL; solubility at 24 h ([6]; phosphate buffer in 0.9% w/w saline, pH 3.5, aqueous buffer, in saline 0.9% w/w, read-out: Solubility as RPL554 (mg/ml) in buffer solution pH 3.5, Phosphate): 1.1 mg/mL; solubility at 24 h ([6]; deionised water, 24 hours, read-out: Solubility as RPL554 (mg/ml) in Water): 2.57 mg/mL
COc1cc2c(cc1OC)-c1c/c(=N\c3c(C)cc(C)cc3C)n(CCNC(N)=O)c(=O)n1CC2 [Ethanesulfonate, RPL554 ethanesulfonate]	5.56%	9.03 µg	126.81 µg/g	10.96%	17.81 µg	266.59 µg/g	BLQ	BLQ	BLQ	20.18 mg	111.09 µg	162.00 µg	0.56 μm	1.43 μm	4.18 μm	1.62 mg/mL	0.79 mg/mL	1.27 mg/mL	98.79 % Theoretical	160.55 µg	pH of aqueous suspension/solution ([1]; listed as Ethane sulfonic): 3.04; dissolution compared with free base / other salts ([2]; 2 hour experiments): higher dissolution than the rest of the salts; mass dissolved ([2]; at 5.7 min): 600 µg; mass dissolved ([2]; at 13 min): 700 µg; Mass of salt (μg) dissolved after 2 hours, Average ([2]; listed as ethanesulfonate salt): 355 µg; Mass of salt (μg) dissolved after 2 hours, Test 1 ([2]; listed as ethanesulfonate salt): 300 µg; Mass of salt (μg) dissolved after 2 hours, Test 2 ([2]; listed as ethanesulfonate salt): 410 µg; Solubility RPL554 (μg/g) ([3]; in HFA 134, BLQ = below limit of quantitation (0.06 μg/mL), listed as ethanesulfonate): quantifiable levels of solubility; Solubility as RPL554 (mg/ml) in Water ([6]; deionised water, 24 hours): 21.37 mg/mL

— patent publication US11491155B2, “Salt of a pyrimido[6,1-A]isoquinolin-4-one compound” (VERONA PHARMA PLC, priority 2015, dated 2022)
